The source of these data is patent publication US12704502B2, “Methods and systems for determining metabolic poise and capacity of living cells” (AGILENT TECHNOLOGIES, INC., priority 2021, dated 2026).

Assay [1] has as its system Human Peripheral Blood CD4+ T cells. As to the method: (§1) Uncoupled respiration measurements were measured in adherent cells epithelioid carcinoma Panc-1 cells (ATCC, CRL-1469) with FCCP. Cells were cultured in Dulbecco's Modified Eagle's Medium (DMEM) supplemented with 10% FBS at 37 C, 5% CO2 incubator according to supplier information. Day before the assay, cells were detached using Trypsin-EDTA solution and seeded in XFe96 cell culture miniplates (Agilent) at 10,000 cells/well. Cells were incubated for 18 hr at 37 C, 5% CO2 incubator. To measure OCR, cells were washed, and cell culture medium was replaced by XF DMEM pH 7.4 supplemented with 10 mM glucose, 2 mM glutamine and 1 mM pyruvate.

For assay [2], the system named is epithelioid carcinoma Panc-1 cells. The settings on record: 2 μM FCCP, FIGS. 1A-1C. As to the method:
as §1

The test system of assay [3] is Human Peripheral Blood NK cells. The settings on record: 1.5, 2, 2.5 or 3 μM, FIGS. 12A-12B. Here is the method:
NK cells were cultured as described herein (e.g., in Example 1).

Turning to FCCP, in assay [1] (T cells, FIGS. 2B, 3B), the “OCR after the rotenone+antimycin A injection” value was “overestimation of OCR”. Also, the “stability of uncoupled respiration during the 3 min of the measurement” value in assay [1] (T cells, after oligomycin, FIGS. 2A, 2C, 3A, 3C) is “inconsistent uncoupled respiration”. Moreover, the “maximal respiration in titration of uncoupler” value in assay [1] (naïve CD4+ T cells, 0.5, 1, 1.5, 2, 2.5 or 3 μM, FIGS. 4A-4B) is recorded as “not as robust nor was there an increase in a dose-dependent manner”; in assay [3], “not as robust”. Besides, the “oxygen consumption on addition of uncoupler” value in assay [2] is listed as “robust increase in oxygen consumption”.
